Values joined by “and” are separate entries in the source; they are usually repeats but may differ in a detail not shown here. Identical values can stand only once.
Assays:
Bt474-TxR = assay: SRB cell viability assay, lapatinib with/without wilforlide A pretreatment; type: cell-based; conditions: 72 h
SkBr3-TxR = assay: as above; type: cell-based; conditions: SkBr3-TxR; for A at 565 nm: background = 0.051
[1] = Lapatinib 6.7 μM, pretreated with 25 μg/ml wilforlide A for 2 h, Table 26
[2] = Lapatinib 20 μM, no wilforlide A pretreatment, Table 25
[3] = Lapatinib 20 μM, no wilforlide A pretreatment, Table 27
[4] = Lapatinib 20 μM, pretreated with 25 μg/ml wilforlide A for 2 h, Table 26
[5] = no wilforlide A pre-Tx, lapatinib 0.01 μM 72 h
[6] = no wilforlide A pre-Tx, lapatinib 0.2 μM 72 h
[7] = no wilforlide A pre-Tx, lapatinib 0.67 μM 72 h
[8] = no wilforlide A pre-Tx, lapatinib 2.0 μM 72 h
[9] = no wilforlide A pre-Tx, lapatinib 6.7 μM 72 h
[10] = no wilforlide A pre-Tx, lapatinib 20 μM 72 h
[11] = wilforlide A 2.5 μg/ml pre-Tx, lapatinib 0.01 μM 72 h
[12] = wilforlide A 2.5 μg/ml pre-Tx, lapatinib 0.067 μM 72 h
[13] = wilforlide A 2.5 μg/ml pre-Tx, lapatinib 0.2 μM 72 h
[14] = wilforlide A 2.5 μg/ml pre-Tx, lapatinib 0.67 μM 72 h
[15] = wilforlide A 2.5 μg/ml pre-Tx, lapatinib 2.0 μM 72 h
[16] = wilforlide A 2.5 μg/ml pre-Tx, lapatinib 6.7 μM 72 h

SMILES: CS(=O)(=O)CCNCc1ccc(-c2ccc3ncnc(Nc4ccc(OCc5cccc(F)c5)c(Cl)c4)c3c2)o1 [lapatinib]
- viability at 6.7 µM (Bt474-TxR; Lapatinib 6.7 μM, no wilforlide A pretreatment, Table 27): 68%
- A at 565 nm (Bt474-TxR; Lapatinib 6.7 μM, no wilforlide A pretreatment, Table 27, background = 0.047): 0.866 and 0.798 and 0.722
- mean A (Bt474-TxR; [1]): 0.729
- viability at 6.7 µM (Bt474-TxR; [1]): 63.5%
- A at 565 nm (Bt474-TxR; Lapatinib 6.7 μM, pretreated with 25 μg/ml wilforlide A for 2 h, Table 26, background = 0.047): 0.663 and 0.737 and 0.787
- mean A (Bt474-TxR; [2]): 0.876
- viability at 20 µM (Bt474-TxR; [2]): 70.2%
- A at 565 nm (Bt474-TxR; Lapatinib 20 μM, no wilforlide A pretreatment, Table 25, background = 0.045): 0.911 and 0.914 and 0.803
- mean A (Bt474-TxR; [3]): 0.746
- viability at 20 µM (Bt474-TxR; [3]): 63.8%
- A at 565 nm (Bt474-TxR; Lapatinib 20 μM, no wilforlide A pretreatment, Table 27, background = 0.047): 0.807 and 0.697 and 0.735
- mean A (Bt474-TxR; [4]): 0.587
- viability at 20 µM (Bt474-TxR; [4]): 51.2%
- A at 565 nm (Bt474-TxR; Lapatinib 20 μM, pretreated with 25 μg/ml wilforlide A for 2 h, Table 26, background = 0.047): 0.530 and 0.655 and 0.577
- viability at 0.001 µM (SkBr3-TxR; 72 h, no wilforlide A pre-Tx, lapatinib 0.001 μM 72 h): 100%
- viability at 0.01 µM (SkBr3-TxR; 72 h, no wilforlide A pre-Tx, lapatinib 0.01 μM 72 h): 101%
- viability at 0.067 µM (SkBr3-TxR; 72 h, no wilforlide A pre-Tx, lapatinib 0.067 μM 72 h): 96.6%
- viability at 0.2 µM (SkBr3-TxR; 72 h, no wilforlide A pre-Tx, lapatinib 0.2 μM 72 h): 90%
- viability at 0.67 µM (SkBr3-TxR; 72 h, no wilforlide A pre-Tx, lapatinib 0.67 μM 72 h): 85.6%
- viability at 2 µM (SkBr3-TxR; 72 h, no wilforlide A pre-Tx, lapatinib 2.0 μM 72 h): 73.5%
- viability at 6.7 µM (SkBr3-TxR; 72 h, no wilforlide A pre-Tx, lapatinib 6.7 μM 72 h): 61.6%
- viability at 20 µM (SkBr3-TxR; 72 h, no wilforlide A pre-Tx, lapatinib 20 μM 72 h): 42.6%
- viability at 0.001 µM (SkBr3-TxR; 72 h, wilforlide A 2.5 μg/ml pre-Tx, lapatinib 0.001 μM 72 h): 100%
- viability at 0.01 µM (SkBr3-TxR; 72 h, wilforlide A 2.5 μg/ml pre-Tx, lapatinib 0.01 μM 72 h): 89%
- viability at 0.067 µM (SkBr3-TxR; 72 h, wilforlide A 2.5 μg/ml pre-Tx, lapatinib 0.067 μM 72 h): 77.2%
- viability at 0.2 µM (SkBr3-TxR; 72 h, wilforlide A 2.5 μg/ml pre-Tx, lapatinib 0.2 μM 72 h): 69.1%
- viability at 0.67 µM (SkBr3-TxR; 72 h, wilforlide A 2.5 μg/ml pre-Tx, lapatinib 0.67 μM 72 h): 59.5%
- viability at 6.7 µM (SkBr3-TxR; 72 h, wilforlide A 2.5 μg/ml pre-Tx, lapatinib 6.7 μM 72 h): 40.7%
- viability at 20 µM (SkBr3-TxR; 72 h, wilforlide A 2.5 μg/ml pre-Tx, lapatinib 20 μM 72 h): 31.1%
- mean A (SkBr3-TxR; no wilforlide A pre-Tx, lapatinib 0.001 μM 72 h): 2.302
- mean A (SkBr3-TxR; [5]): 2.322
- A at 565 nm (SkBr3-TxR; [5]): 2.458
- mean A (SkBr3-TxR; no wilforlide A pre-Tx, lapatinib 0.067 μM 72 h): 2.222
- mean A (SkBr3-TxR; [6]): 2.071
- A at 565 nm (SkBr3-TxR; [6]): 1.945
- mean A (SkBr3-TxR; [7]): 1.970
- A at 565 nm (SkBr3-TxR; [7]): 1.871 and 1.990 and 2.048
- mean A (SkBr3-TxR; [8]): 1.692
- A at 565 nm (SkBr3-TxR; [8]): 1.609 and 1.759 and 1.708
- mean A (SkBr3-TxR; [9]): 1.418
- A at 565 nm (SkBr3-TxR; [9]): 1.426 and 1.445 and 1.384
- mean A (SkBr3-TxR; [10]): 0.980
- A at 565 nm (SkBr3-TxR; [10]): 0.958 and 1.024 and 0.957
- mean A (SkBr3-TxR; wilforlide A 2.5 μg/ml pre-Tx, lapatinib 0.001 μM 72 h): 2.265
- mean A (SkBr3-TxR; [11]): 2.016
- A at 565 nm (SkBr3-TxR; [11]): 1.817 and 1.976
- mean A (SkBr3-TxR; [12]): 1.748
- A at 565 nm (SkBr3-TxR; [12]): 1.344 and 1.909 and 1.992
- mean A (SkBr3-TxR; [13]): 1.564
- A at 565 nm (SkBr3-TxR; [13]): 1.299 and 1.540 and 1.854
- mean A (SkBr3-TxR; [14]): 1.347
- A at 565 nm (SkBr3-TxR; [14]): 1.127 and 1.398 and 1.517
- mean A (SkBr3-TxR; [15]): 1.140
- A at 565 nm (SkBr3-TxR; [15]): 0.987 and 1.095 and 1.339
- mean A (SkBr3-TxR; [16]): 0.922
- A at 565 nm (SkBr3-TxR; [16]): 0.794 and 0.932 and 1.040
- A at 565 nm (SkBr3-TxR; wilforlide A 2.5 μg/ml pre-Tx, lapatinib 20 μM 72 h): 0.731 and 0.673 and 0.706
- IC50 (SkBr3-TxR; wilforlide A 2.5 μg/ml pre-Tx, read-out: Drug IC50 after wilforlide A pre-Tx): 886 nM
- CE (SkBr3-TxR; chemosensitization effect, wilforlide A 2.5 μg/ml pre-Tx): 13
